Source: patent US11478426B2, “Abuse deterrent immediate release capsule dosage forms” (SpecGX LLC, priority 2018, dated 2022)

Test system: Slug species
Test: Slug irritation test (mucus production as model of nasal irritation)
Assay type: in vivo
Conditions: 15 min exposure, mean ± SEM (n)
Experimental: The organic acid of the capsule contents was tested for potential nasal irritation using a slug irritation model.

Compound	Mucus Production (% of Body Weight) (dose 0.3 mg)	Mucus Production (% of Body Weight) (dose 1.0 mg)	Mucus Production (% of Body Weight) (dose 3.0 mg)	Mucus Production (% of Body Weight) (dose 5.0 mg)	Mucus Production (% of Body Weight) (dose 10 mg)	Mucus Production (% of Body Weight) (dose 15 mg)	Mucus Production (% of Body Weight) (dose 20 mg)	Mucus Production (% of Body Weight) (dose 1%)
CCCCCCCCCCCCOS(=O)(=O)[O-].[Na+] [Sodium Lauryl Sulfate]	5.9 ± 2.0 (6) % of Body Weight	9.5 ± 2.1 (9) % of Body Weight	13.4 ± 2.6 (3) % of Body Weight	9.8 ± 2.1 (6) % of Body Weight	16.6 ± 0.9 (3) % of Body Weight	22.7 ± 4.5 (3) % of Body Weight	26.2 ± 3.8 (3) % of Body Weight	
O=C(O)C(O)C(O)C(=O)O (stereo not shown) [Tartaric Acid]			2.8 ± 2.4 (3) % of Body Weight	7.2 ± 0.7 (6) % of Body Weight	10.0 ± 1.3 (3) % of Body Weight	33.6 ± 1.1 (6) % of Body Weight	24.6 ± 2.8 (3) % of Body Weight	
Benzalkonium Chloride [Benzalkonium Chloride (BAC)]								24.7 ± 2.1 (3) % of Body Weight
